# Measured values published in publication PMC11258486, “Phase 1 dose escalation study of the MDM2 inhibitor milademetan as monotherapy and in combination with azacitidine in patients with myeloid malignancies” (Cancer Medicine, 2024).
# Structures can show the parent of a compound that is named as a salt. Where two headings read alike, the source gives them in different places.
# Key:
# [1] = tested on: relapsed or refractory AML; experiment: Treatment response in participants with AML (2017 European Leukemia Net recommendations); format: in vivo, human
# Procedure: (§1) Treatment efficacy was assessed according to the 2017 European Leukemia Net recommendations for AML[23] and the 2006 International Working Group response criteria for MDS.[24] In participants with AML, efficacy outcomes included complete remission (CR), CR with incomplete blood count recovery (CRi), composite complete remission (CRc; CR + CRi), morphologic leukemia‐free state (MLFS), partial remission (PR), overall response rate (CRc + MLFS+PR), stable disease (SD), and treatment failure. Bone marrow biopsies/aspirates were obtained from all participants with AML on Day 1 of Cycles 2 and 3 and once every cycle until response and on Day 1 of Cycles 6, 9, and 12 in responding participants.
# high‐risk MDS = experiment: Treatment response in participants with high‐risk MDS (2006 International Working Group criteria); format: in vivo, human; settings: Full Analysis Set
# Procedure: as §1
# [2] = Milademetan plasma pharmacokinetics; format: in vivo, human; set-up: AUC0‐24h versus dose, power model estimated slope: unit not given beside the values; settings: for half-life / Tmax: human, plasma; for half-life: read-out: geometric mean t1/2
# From the text: For PK analysis, blood samples were collected at frequent intervals during Cycle 1 Days 1 and 15 in Part 1 (monotherapy), and on Day 5 or 8 (according to dosing schedule) and Day 14 in Part 1A, with sparse sampling on other days.
# [3] = tested on: Macrophage inhibitory cytokine‐1 (MIC‐1); experiment: Serum MIC‐1 pharmacodynamics; format: in vivo, human; settings: monotherapy, all cohorts
# From the text: Macrophage inhibitory cytokine‐1 (MIC‐1) is a target of p53 transcriptional activation,[25] and, therefore, change in serum MIC‐1 levels was included as a PD endpoint, measured at multiple time points.
# [4] = tested on: patients with solid tumors or lymphomas; settings: cited from earlier work
# [5] = 160 mg QD for 15 days in Cycle 1
# [6] = monotherapy, all studied doses, Cycle 1 Day 1
compound,measurement,setting,value
"CC1(C)CCC2(CC1)N[C@@H](C(=O)N[C@@H]1CC[C@@H](C(N)=O)OC1)[C@H](c1ccnc(Cl)c1F)[C@]21C(=O)Nc2cc(Cl)ccc21 [Milademetan monotherapy, milademetan tosylate hydrate]",AML: CR,[1]; Full Analysis Set,2 (4%) n (%)
same,AML: CRi,[1]; Full Analysis Set,1 (2%) n (%)
same,Participants who achieved CR with incomplete blood count recovery (CRi),[1]; as given in the abstract,2.1%
same,Participants who achieved complete remission (CR),[1]; as given in the abstract,4.2%
same,Participants with remission,[1]; as summed in the discussion,4 n (%)
same,MDS: Marrow CR,high‐risk MDS,1 (11%) n (%)
same,MDS: SD,high‐risk MDS,2 (22%) n (%)
same,accumulation ratio (AR) based on AUC0‐24h,[2]; [5],1.29
same,accumulation ratio (AR) based on C max,[2]; [5],1.21
same,"Increase of C max, AUC0‐24h and AUClast with dose",[2]; both monotherapy and combination arms,dose‐proportional
same,half-life,"[2]; monotherapy, Cycle 1 Day 15",7.2 to 25.2 h
same,Tmax,"[2]; Cohorts 1 through 3 (60, 90, 120 mg QD 21/28)",~3 h
same,Tmax,[2]; [6],3 to 4.6 h
same,half-life,[2]; [6],12.9 to 24.6 h
same,"C max versus dose, power model estimated slope","[2]; monotherapy, Cycle 1 Day 1, 90% CI 0.44–1.08",0.76
same,"AUC0‐24h versus dose, power model estimated slope","[2]; monotherapy, Cycle 1 Day 1, 90% CI 0.49–1.15",0.82
same,Time at which steady state is reached,[2]; repeated daily doses,≤ 8 days
same,"serum MIC‐1, mean (SD) fold change from baseline",[3]; Cycle 1 Day 8 (N = 53),6.4 (5.8) fold change
same,"serum MIC‐1, mean (SD) fold change from baseline",[3]; Cycle 1 Day 15 (N = 49),5.1 (4.2) fold change
same,"serum MIC‐1, mean (SD) fold change from baseline",[3]; Cycle 1 Days 21 through 22,4.1 (3.3) fold change
same,DLT observed,"[4]; 120 mg QD 21/28, phase 1 studies in the United States and Japan",thrombocytopenia and nausea
same,MTD,"[4]; US study in solid tumors, QD 3/14 × 2 schedule",260 mg
